According to patent US11078198B2 (BRISTOL-MYERS SQUIBB COMPANY, priority 2017, dated 2021):

Biological target: T1, human FXR (Homo sapiens, UniProt Q96RI1)
T1 construct: expressed in transfected cells; host or cells: HEK293 cells stably carrying a 5xGal4-response-element firefly luciferase reporter, transiently transfected with pcDNA3.1-Gal4-FXR
T1 sequence (Q96RI1 262-486 limits assumed): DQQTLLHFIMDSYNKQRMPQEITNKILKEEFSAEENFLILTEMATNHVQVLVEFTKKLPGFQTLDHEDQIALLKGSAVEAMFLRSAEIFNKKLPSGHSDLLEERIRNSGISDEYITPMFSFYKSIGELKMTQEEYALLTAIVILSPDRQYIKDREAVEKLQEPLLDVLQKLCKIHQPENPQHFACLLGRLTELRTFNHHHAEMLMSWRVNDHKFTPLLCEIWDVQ
Assay: transient human FXR/Gal4-luciferase reporter assay
Type: cell-based
Details: Gal4-hFXR transfected HEK293 reporter cells; relative to 8 μM GW-4064
Outline: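 Transient Gal4-hFXR LBD fusion (pcDNA3.1, Lipofectamine, overnight) expressed in a HEK293 reporter line stably bearing five Gal4 elements upstream of firefly luciferase, grown in charcoal/dextran-stripped FBS. Compound dilutions in DMSO incubated with cells overnight at 37° C, 5% CO2, before luciferase readout.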

EC50 [nM] | SMILES
38 | O=C(O)c1cc(C(F)(F)F)c2cc(N3CCC4(C=C(c5c(-c6c(Cl)cccc6Cl)noc5C5CC5)C4)CC3)ccc2n1 [Example 83, 6-(2-(5-Cyclopropyl-3-(2,6-dichlorophenyl)isoxazol-4-yl)-7-azaspiro[3.5]non-1-en-7-yl)-4-(trifluoromethyl)quinoline-2-carboxylic acid]
2320 | O=C(O)c1cc2ccc(N3CCC4(C=C(c5c(-c6ncccc6Cl)noc5C5CC5)C4)CC3)cc2cn1 [Example 161, 7-(2-(3-(3-Chloropyridin-2-yl)-5-cyclopropylisoxazol-4-yl)-7-azaspiro[3.5]non-1-en-7-yl) isoquinoline-3-carboxylic acid]
172 | O=C(O)c1cnc2cc(N3CCC4(C=C(c5c(-c6ccccc6C(F)(F)F)noc5C5CC5)C4)CC3)ccc2n1 [Example 178, 6-(2-(5-Cyclopropyl-3-(2-(trifluoromethyl)phenyl)isoxazol-4-yl)-7-azaspiro[3.5]non-1-en-7-yl)quinoxaline-2-carboxylic acid]
511 | O=C(O)c1cc(C(F)(F)F)c2cc(N3CCC4(C=C(c5c(-c6c(F)cncc6F)noc5C5CC5)C4)CC3)ccc2n1 [Example 93, 6-(2-(5-Cyclopropyl-3-(3,5-difluoropyridin-4-yl)isoxazol-4-yl)-7-azaspiro[3.5]non-1-en-7-yl)-4-(trifluoromethyl)quinoline-2-carboxylic acid]
373 | O=C(O)COc1cnc2ccc(N3CCC4(C=C(c5c(-c6c(Cl)cccc6Cl)noc5C5CC5)C4)CC3)cc2n1 [Example 130, 2-((7-(2-(5-Cyclopropyl-3-(2,6-dichlorophenyl)isoxazol-4-yl)-7-azaspiro[3.5]non-1-en-7-yl)quinoxalin-2-yl)oxy)acetic acid]
68 | O=C(O)c1cc(C(F)(F)F)c2cc(N3CCC4(C=C(c5c(-c6c(Cl)cc(F)cc6Cl)noc5C5CC5)C4)CC3)ccc2n1 [Example 86, 6-(2-(5-Cyclopropyl-3-(2,6-dichloro-4-fluorophenyl)isoxazol-4-yl)-7-azaspiro[3.5]non-1-en-7-yl)-4-(trifluoromethyl)quinoline-2-carboxylic acid]
43 | O=C(NS(=O)(=O)C1CC1)c1cc(OC(F)F)c2cc(N3CCC4(C=C(c5c(-c6cnccc6C(F)(F)F)noc5C5CC5)C4)CC3)ccc2n1 [Example 188, 6-(2-(5-Cyclopropyl-3-(4-(trifluoromethyl)pyridin-3-yl)isoxazol-4-yl)-7-azaspiro[3.5]non-1-en-7-yl)-N-(cyclopropylsulfonyl)-4-(difluoromethoxy)quinoline-2-carboxamide]
770 | O=C(O)c1ccc(N2CCC3(C=C(c4c(-c5ccccc5OC(F)(F)F)noc4C4CC4)C3)CC2)nc1 [Example 21, 6-(2-(5-Cyclopropyl-3-(2-(trifluoromethoxy)phenyl)isoxazol-4-yl)-7-azaspiro[3.5]non-1-en-7-yl) nicotinic acid]
1750 | Cc1c(N2CCC3(C=C(c4c(-c5ccccc5C(F)(F)F)noc4C4CC4)C3)CC2)ccc2cc(C(=O)O)cnc12 [Example 170, 7-(2-(5-Cyclopropyl-3-(2-(trifluoromethyl)phenyl)isoxazol-4-yl)-7-azaspiro[3.5]non-1-en-7-yl)-8-methylquinoline-3-carboxylic acid]
223 | Cc1cccc(Cl)c1-c1noc(C2CC2)c1C1=CC2(CCN(c3ccc4nc(C(=O)O)ccc4c3)CC2)C1 [Example 157, 6-(2-(3-(2-Chloro-6-methylphenyl)-5-cyclopropylisoxazol-4-yl)-7-azaspiro[3.5]non-1-en-7-yl)quinoline-2-carboxylic acid]
392 | Cn1nc(C(=O)O)c2ccc(N3CCC4(C=C(c5c(-c6ccccc6C(F)(F)F)noc5C5CC5)C4)CC3)cc21 [Example 164, 6-(2-(5-Cyclopropyl-3-(2-(trifluoromethyl)phenyl)isoxazol-4-yl)-7-azaspiro[3.5]non-1-en-7-yl)-1-methyl-1H-indazole-3-carboxylic acid]
1400 | O=C(O)c1ccc(N2CCC3(CC2)CC(c2c(-c4ccccc4C(F)(F)F)noc2C2CC2)C3)nc1 [Example 37]

The next lines start with the molecule.

SMILES | EC50 [nM]
CC(C)c1onc(-c2c(Cl)cncc2Cl)c1C1=CC2(CCN(c3nc4c(F)cc(C(=O)O)cc4s3)CC2)C1 [Example 52, 2-(2-(3-(3,5-Dichloropyridin-4-yl)-5-isopropylisoxazol-4-yl)-7-azaspiro[3.5]non-1-en-7-yl)-4-fluorobenzo[d]thiazole-6-carboxylic acid] | 58
O=C(O)c1cc(F)c2nc(N3C4CCC3CC3(CC(c5c(-c6c(Cl)cccc6Cl)noc5C5CC5)C3)C4)sc2c1 (stereo not drawn) [Example 15, 2-(3′-(5-Cyclopropyl-3-(2,6-dichlorophenyl)isoxazol-4-yl)-8-azaspiro[bicyclo[3.2.1]octane-3,1′-cyclobutan]-8-yl)-4-fluorobenzo[d]thiazole-6-carboxylic acid] | 301
COc1cc(C(=O)NS(C)(=O)=O)nc2ccc(N3CCC4(C=C(c5c(-c6c(Cl)cncc6Cl)noc5C5CC5)C4)CC3)cc12 [Example 195, 6-(2-(5-Cyclopropyl-3-(3,5-dichloropyridin-4-yl)isoxazol-4-yl)-7-azaspiro[3.5]non-1-en-7-yl)-4-methoxy-N-(methylsulfonyl)quinoline-2-carboxamide] | 75
O=C(O)c1cc(F)c2nc(N3CCC4(C=C(c5c(-c6c(F)cncc6F)noc5C5CC5)C4)CC3)sc2c1 [Example 68, 2-(2-(5-Cyclopropyl-3-(3,5-difluoropyridin-4-yl)isoxazol-4-yl)-7-azaspiro[3.5]non-1-en-7-yl)-4-fluorobenzo[d]thiazole-6-carboxylic acid] | 442
CC(C)Oc1cc(C(=O)O)nc2ccc(N3CCC4(C=C(c5c(-c6c(Cl)cncc6Cl)noc5C5CC5)C4)CC3)cc12 [Example 111, 6-(2-(5-Cyclopropyl-3-(3,5-dichloropyridin-4-yl)isoxazol-4-yl)-7-azaspiro[3.5]non-1-en-7-yl)-4-isopropoxyquinoline-2-carboxylic acid] | 47
O=C(O)c1ccc2nc(N3CCC4(C=C(c5c(-c6c(Cl)cncc6Cl)noc5C5CC5)C4)CC3)sc2n1 [Example 62, 2-(2-(5-Cyclopropyl-3-(3,5-dichloropyridin-4-yl)isoxazol-4-yl)-7-azaspiro[3.5]non-1-en-7-yl)thiazolo[5,4-b]pyridine-5-carboxylic acid] | 24
O=C(O)c1ccc(N2CCC3(C=C(c4c(-c5c(Cl)cccc5Cl)noc4C4CC4)C3)CC2)cc1 [Example 10, 4-(2-(5-Cyclopropyl-3-(2,6-dichlorophenyl)isoxazol-4-yl)-7-azaspiro[3.5]non-1-en-7-yl)benzoic acid] | 135
O=C(O)c1ccc(N2CCC3(C=C(c4c(-c5c(Cl)cc(F)cc5Cl)noc4C4CC4)C3)CC2)nc1 [Example 67, 6-(2-(5-Cyclopropyl-3-(2,6-dichloro-4-fluorophenyl)isoxazol-4-yl)-7-azaspiro[3.5]non-1-en-7-yl)nicotinic acid] | 493
COc1cncc(F)c1-c1noc(C2CC2)c1C1=CC2(CCN(c3nc4c(F)cc(C(=O)O)cc4s3)CC2)C1 [Example 69, 2-(2-(5-Cyclopropyl-3-(3-fluoro-5-methoxypyridin-4-yl)isoxazol-4-yl)-7-azaspiro[3.5]non-1-en-7-yl)-4-fluorobenzo[d]thiazole-6-carboxylic acid] | 730
